# Experimental data published in ChEMBL document CHEMBL1201862, “PubChem BioAssay data set” (2004).
#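 A five-concentration, 48-hour dose response in 96-well plates underlies each endpoint, interpolated linearly between surrounding concentrations. Abbreviation: GI50, concentration required for 50% inhibition of growth.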 Calls of active or inactive are those of the source. Cut-off read from the data, not from the text of the source: active = GI50 up to about 1.1 µM and inactive = higher.
# Tests used:
# Test in all cases: NCI-60 cell line screen, 48 h
# SK-MEL-28 = test system: SK-MEL-28
# SNB-75 = test system: SNB-75
# SF-539 = test system: SF-539
# HT-29 = test system: HT-29
# SK-MEL-5 = test system: SK-MEL-5
# HOP-18 = test system: HOP-18
# SR = test system: SR
# SF-295 = test system: SF-295
# CCRF-CEM = test system: CCRF-CEM
# SW-620 = test system: SW-620
# SN12C = test system: SN12C
# LXFL 529 = test system: LXFL 529
# TK-10 = test system: TK-10
# UACC-257 = test system: UACC-257
# NCI-H226 = test system: NCI-H226
# Malme-3M = test system: Malme-3M
# NCI-H23 = test system: NCI-H23
# U-251 = test system: U-251
# HL-60 = test system: HL-60
# SF-268 = test system: SF-268
# OVCAR-5 = test system: OVCAR-5
# HCC 2998 = test system: HCC 2998
# RPMI-8226 = test system: RPMI-8226
# OVCAR-8 = test system: OVCAR-8
# DMS-114 = test system: DMS-114
# NCI-H522 = test system: NCI-H522
# HCT-15 = test system: HCT-15
# OVCAR-4 = test system: OVCAR-4
# UO-31 = test system: UO-31
# ACHN = test system: ACHN
# CAKI-1 = test system: CAKI-1
# HCT-116 = test system: HCT-116
# SK-MEL-2 = test system: SK-MEL-2
# 786-0 = test system: 786-0
# EKVX = test system: EKVX
# K562 = test system: K562
# IGROV-1 = test system: IGROV-1
# NCI-H460 = test system: NCI-H460
# KM12 = test system: KM12
# DLD-1 = test system: DLD-1
# MOLT-4 = test system: MOLT-4
# COLO 205 = test system: COLO 205
# HOP-92 = test system: HOP-92
# LOX IMVI = test system: LOX IMVI
# A498 = test system: A498
# M14 = test system: M14
# M19-MEL = test system: M19-MEL
# SK-OV-3 = test system: SK-OV-3
# SNB-78 = test system: SNB-78
# UACC-62 = test system: UACC-62
# A549 = test system: A549
# XF498 = test system: XF498
compound,measurement,setting,value
N#C/C(=C/c1cccc(Oc2ccccc2)c1)c1ccccc1,GI50,SK-MEL-28,> 100 µM (inactive)
same,GI50,SNB-75,> 100 µM (inactive)
same,GI50,SF-539,> 100 µM (inactive)
same,GI50,HT-29,> 100 µM (inactive)
same,GI50,SK-MEL-5,> 100 µM (inactive)
same,GI50,HOP-18,> 100 µM (inactive)
same,GI50,SR,> 100 µM (inactive)
same,GI50,SF-295,4.95 µM (inactive)
same,GI50,CCRF-CEM,> 100 µM (inactive)
same,GI50,SW-620,> 100 µM (inactive)
same,GI50,SN12C,> 100 µM (inactive)
same,GI50,LXFL 529,> 100 µM (inactive)
same,GI50,TK-10,> 100 µM (inactive)
same,GI50,UACC-257,> 100 µM (inactive)
same,GI50,NCI-H226,> 100 µM (inactive)
same,GI50,Malme-3M,> 100 µM (inactive)
same,GI50,NCI-H23,> 100 µM (inactive)
same,GI50,U-251,> 100 µM (inactive)
same,GI50,HL-60,64.7 µM (inactive)
same,GI50,SF-268,> 100 µM (inactive)
same,GI50,OVCAR-5,34.6 µM (inactive)
same,GI50,HCC 2998,> 100 µM (inactive)
same,GI50,RPMI-8226,> 100 µM (inactive)
same,GI50,OVCAR-8,> 100 µM (inactive)
same,GI50,DMS-114,51.8 µM (inactive)
same,GI50,NCI-H522,> 100 µM (inactive)
same,GI50,HCT-15,> 100 µM
same,GI50,OVCAR-4,> 100 µM (inactive)
same,GI50,UO-31,> 100 µM (inactive)
same,GI50,ACHN,> 100 µM (inactive)
same,GI50,CAKI-1,> 100 µM (inactive)
same,GI50,HCT-116,> 100 µM (inactive)
same,GI50,SK-MEL-2,66.5 µM (inactive)
same,GI50,786-0,> 100 µM (inactive)
same,GI50,EKVX,> 100 µM (inactive)
same,GI50,K562,36.7 µM (inactive)
same,GI50,IGROV-1,> 100 µM (inactive)
same,GI50,NCI-H460,> 100 µM (inactive)
same,GI50,KM12,> 100 µM (inactive)
same,GI50,DLD-1,> 100 µM (inactive)
same,GI50,MOLT-4,> 100 µM (inactive)
same,GI50,COLO 205,55 µM (inactive)
same,GI50,HOP-92,93.8 µM (inactive)
same,GI50,LOX IMVI,> 100 µM (inactive)
same,GI50,A498,> 100 µM (inactive)
same,GI50,M14,> 100 µM (inactive)
same,GI50,M19-MEL,> 100 µM (inactive)
same,GI50,SK-OV-3,> 100 µM (inactive)
same,GI50,SNB-78,> 100 µM (inactive)
same,GI50,UACC-62,> 100 µM (inactive)
same,GI50,A549,> 100 µM (inactive)
same,GI50,XF498,> 100 µM (inactive)
